Experiments:
[1] = system: MOLM14 D835Y cells; test: MOLM14 D835Y cell viability assay (Cell Titer Glo); assay type: cell-based
Method: (§1) Both cell lines have activated FLT3 receptors, each of which carry additional resistance mutations in the kinase domain (D835Y and F691L, respectively).
(§2) MOLM14 D835Y and MOLM14 F691L cells were grown in RPMI-1640 media supplemented with 20% fetal bovine serum (FBS). For viability/cytotoxicity assessments, cells were seeded into 1536-well white polystyrene tissue culture-treated Greiner plates using a Multidrop Combi dispenser (ThermoFisher), in final volume 5 μL of growth media per well, at a density of 1000 cells per well. After cell addition, 23 nL of test compound were transferred into individual wells (22 doses tested for each test compound, with a 1:2 dilution series starting at 10 μM) via a 1536 pin-tool. Bortezomib (final concentration 2.3 μM) was used as a positive control for cell cytotoxicity. Plates were incubated for 48 hours at standard incubator conditions covered by a stainless steel gasketed lid to prevent evaporation. 48 hours post compound addition, 3 μL of Cell Titer Glo (Promega) were added to each well and plates were incubated at room temperature for 15 minutes with the stainless-steel lid in place. Luminescence readings were taken using a Viewlux imager (PerkinElmer) with a 2 second exposure time per plate.

[2] = target: T1, IRAK1 (Homo sapiens, UniProt P51617); test: RBC HotSpot Kinase Assay, IRAK1; assay type: biochemical
T1 construct: purchased Reaction Biology (RBC HotSpot Kinase Assay)
Procedure, shortened: (§3)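 Radiometric filter-binding (HotSpot) activity assay on isolated recombinant kinase, possibly truncated or catalytic domain only, in 20 mM Hepes pH 7.5, 10 mM MgCl2, 1 mM EGTA, 2 mM DTT, 1% DMSO. Compound preincubated 20 min with kinase and substrate, then ^33P-ATP added. Reaction 2 h at room temperature, read by P81 filter binding.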

[3] = target: T2, IRAK4 (Homo sapiens, UniProt Q9NWZ3); test: RBC HotSpot Kinase Assay, IRAK4; assay type: biochemical; set-up: purchased Reaction Biology (RBC HotSpot Kinase Assay)
T2 sequence (Q9NWZ3 1-460): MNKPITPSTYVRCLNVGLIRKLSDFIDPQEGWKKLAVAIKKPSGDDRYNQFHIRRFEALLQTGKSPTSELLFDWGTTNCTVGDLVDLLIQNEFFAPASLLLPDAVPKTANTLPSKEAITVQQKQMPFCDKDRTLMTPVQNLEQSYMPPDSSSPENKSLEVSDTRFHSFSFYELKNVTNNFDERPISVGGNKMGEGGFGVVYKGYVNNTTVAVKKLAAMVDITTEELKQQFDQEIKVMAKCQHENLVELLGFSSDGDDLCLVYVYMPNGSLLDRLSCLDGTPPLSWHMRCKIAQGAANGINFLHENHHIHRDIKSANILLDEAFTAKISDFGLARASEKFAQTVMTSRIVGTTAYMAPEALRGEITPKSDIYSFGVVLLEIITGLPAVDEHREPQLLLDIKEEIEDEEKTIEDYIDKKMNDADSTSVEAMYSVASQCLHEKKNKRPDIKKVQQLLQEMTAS
Procedure, shortened: as §3

[4] = target: T3, FLT3 (Homo sapiens, UniProt P36888); test: RBC HotSpot Kinase Assay, FLT3; assay type: biochemical
T3 construct: purchased Reaction Biology (RBC HotSpot Kinase Assay)
T3 sequence (P36888 564-958 limits assumed): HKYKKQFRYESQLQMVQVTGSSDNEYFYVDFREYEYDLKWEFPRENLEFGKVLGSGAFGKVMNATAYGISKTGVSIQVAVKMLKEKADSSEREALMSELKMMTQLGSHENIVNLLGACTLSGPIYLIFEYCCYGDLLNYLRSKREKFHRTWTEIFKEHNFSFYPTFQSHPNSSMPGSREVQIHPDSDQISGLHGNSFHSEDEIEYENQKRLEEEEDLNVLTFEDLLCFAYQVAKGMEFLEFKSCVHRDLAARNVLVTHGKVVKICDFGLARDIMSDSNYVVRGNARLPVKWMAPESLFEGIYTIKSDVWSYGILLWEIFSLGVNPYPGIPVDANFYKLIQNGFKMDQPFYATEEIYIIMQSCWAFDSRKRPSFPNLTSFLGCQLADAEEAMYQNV
Procedure, shortened: as §3

[5] = system: MOLM14 F691L cells; test: MOLM14 F691L cell viability assay (Cell Titer Glo); assay type: cell-based
Method: as §1, §2

[6] = system: MOLM14 (D835Y) cells; test: Combination drug screening, 10 x 10 matrix, cell viability (Cell Titer Glo); assay type: cell-based; conditions: combination with Compound 96, 10 x 10 dataset, 48 hours
Method: Briefly, 10 nL of compounds were acoustically dispensed into 1536-well white polystyrene tissue culture-treated plates with an Echo 550 acoustic liquid handler (Labcyte). MOLM14 (D835Y) cells were then added to compound-containing plates at a density of 500-cells/well in 5 μL of medium. A 10-point custom concentration range was used for all listed drugs. Plates were incubated for 48 hours at standard incubator conditions covered by a stainless steel gasketed lid to prevent evaporation. 48 h post compound addition, 3 μL of Cell Titer Glo (Promega) were added to each well and plates were incubated at room temperature for 15 minutes with the stainless-steel lid in place. Luminescence readings were taken using a Viewlux imager (PerkinElmer) with a 2 second exposure time per plate.
However, different methodologies may yield different numerical scores, and different definitions of what constitutes a deviation from mere additivity vs true drug synergy.
However, the utility in certain drug combinations vs others should not be distinguished based on cutoffs between HSA scores, because the score itself is only a relative indicator that is completely dependent on experimental design and is not an absolute number. Furthermore, the concept of what constitutes clinically meaningful drug synergy is something that is still being debated, not only between pharmacologists and physicians, but amongst pharmacologists themselves.

T1 sequence (P51617 whole entry): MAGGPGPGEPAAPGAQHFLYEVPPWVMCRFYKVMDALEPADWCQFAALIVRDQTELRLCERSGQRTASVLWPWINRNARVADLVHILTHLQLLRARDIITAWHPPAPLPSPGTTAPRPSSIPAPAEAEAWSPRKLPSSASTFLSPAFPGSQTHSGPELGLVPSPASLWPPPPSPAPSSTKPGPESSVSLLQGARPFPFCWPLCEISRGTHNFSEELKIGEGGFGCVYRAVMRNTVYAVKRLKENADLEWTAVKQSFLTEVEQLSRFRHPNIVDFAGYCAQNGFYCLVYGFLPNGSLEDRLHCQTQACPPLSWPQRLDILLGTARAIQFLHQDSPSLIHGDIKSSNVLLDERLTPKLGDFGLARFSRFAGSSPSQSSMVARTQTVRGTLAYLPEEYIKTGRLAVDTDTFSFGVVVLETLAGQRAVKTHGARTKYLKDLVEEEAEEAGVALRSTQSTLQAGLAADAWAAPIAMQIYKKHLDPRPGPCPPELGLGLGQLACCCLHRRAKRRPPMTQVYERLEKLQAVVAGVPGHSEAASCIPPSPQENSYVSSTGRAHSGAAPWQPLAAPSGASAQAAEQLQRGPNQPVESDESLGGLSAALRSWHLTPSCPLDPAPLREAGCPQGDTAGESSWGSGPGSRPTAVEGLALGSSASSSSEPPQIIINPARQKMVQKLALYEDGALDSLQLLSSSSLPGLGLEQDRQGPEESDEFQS

SMILES | IC50 ([1]; Homo sapiens, MOLM-14, 48 h) | IC50 [2] | IC50 [3] | IC50 [4] | IC50 ([5]; Homo sapiens, MOLM-14, 48 h) | IC50 ([1]; 48 hours) | IC50 ([5]; 48 hours) | Sum Excess HSA [6]
COc1cc2ncc(-c3cc(F)cc(N[C@@H]4CCCNC4)n3)n2nc1C1CC1 [Compound 104, (R)-6-(6-cyclopropyl-7-methoxyimidazo[1,2-b]pyridazin-3-yl)-4-fluoro-N-(piperidin-3-yl)pyridin-2-amine] | 193 nM | 1340 nM | 45 nM | < 0.5 nM | 1150 nM |  |  | 
COc1cc2ncc(-c3cccc(N[C@@H]4CCCNC4)n3)n2nc1C(C)(O)C(F)(F)F (single isomer, unassigned) [Compound 131] |  | 8200 nM | 424 nM | < 0.5 nM |  | 69 nM | 545 nM | 
COc1cc2ncc(-c3cccc(N[C@H]4CNC[C@@H]4C)n3)n2nc1C1(C(F)(F)F)CC1 [Compound 83, 6-(7-methoxy-6-(1-(trifluoromethyl)cyclopropyl)imidazo[1,2-b]pyridazin-3-yl)-N-((3R,4S)-4-methylpyrrolidin-3-yl)pyridin-2-amine] | 259 nM | 3670 nM | 25 nM | 0.8 nM |  |  |  | 
COc1cc2ncc(-c3cccc(N[C@H]4CNC[C@@H]4F)n3)n2nc1-c1cnn(C)c1 [Compound 121, N-((3S,4S)-4-fluoropyrrolidin-3-yl)-6-(7-methoxy-6-(1-methyl-1H-pyrazol-4-yl)imidazo[1,2-b]pyridazin-3-yl)pyridin-2-amine] | 97 nM | 778 nM | 11 nM | 1 nM | 1370 nM |  |  | 
F[C@H]1CNC[C@@H]1Nc1cccc(-c2cnc3cc(C4CC4)cnn23)n1 [Compound 111, 6-(7-cyclopropylimidazo[1,2-b]pyridazin-3-yl)-N-((3S,4S)-4-fluoropyrrolidin-3-yl)pyridin-2-amine] | 1010 nM | 774 nM | 131 nM | 4 nM |  |  |  | 
COc1cc2ncc(-c3cc(F)cc(N[C@H]4CNCC[C@@H]4F)n3)n2nc1C1CC1 [Compound 105, 6-(6-cyclopropyl-7-methoxyimidazo[1,2-b]pyridazin-3-yl)-4-fluoro-N-((3S,4S)-4-fluoropiperidin-3-yl)pyridin-2-amine] | 231 nM | 272 nM | 7 nM | < 0.5 nM | 1220 nM |  |  | 
COc1cc2ncc(-c3cccc(N[C@H]4CNC[C@@H]4F)n3)n2nc1C1(C(F)(F)F)CC1 [Compound 82, N-((3S,4S)-4-fluoropyrrolidin-3-yl)-6-(7-methoxy-6-(1-(trifluoromethyl)cyclopropyl)imidazo[1,2-b]pyridazin-3-yl)pyridin-2-amine] | 357 nM | 595 nM | 18 nM | 1 nM |  |  |  | 
F[C@H]1CNCC[C@@H]1Nc1cccc(-c2cnc3ccc(-c4cnn5ccccc45)nn23)n1 [Compound 20, N-((3S,4S)-3-fluoropiperidin-4-yl)-6-(6-(pyrazolo[1,5-a]pyridin-3-yl)imidazo[1,2-b]pyridazin-3-yl)pyridin-2-amine] | 333 nM | 3 nM | < 0.5 nM | < 0.5 nM |  |  |  | 
COc1cc2ncc(-c3cccc(N[C@H]4CNCC[C@@H]4F)n3)n2nc1-c1cnn(C(F)F)c1 [Compound 129, 6-(6-(1-(difluoromethyl)-1H-pyrazol-4-yl)-7-methoxyimidazo[1,2-b]pyridazin-3-yl)-N-((3S,4S)-4-fluoropiperidin-3-yl)pyridin-2-amine] | 154 nM | 1140 nM |  | < 0.5 nM | 2170 nM |  |  | 
COc1cc2ncc(-c3cccc(N[C@@H]4CCNC4)n3)n2nc1C1(C(F)(F)F)CC1 [Compound 81, (R)-6-(7-methoxy-6-(1-(trifluoromethyl)cyclopropyl)imidazo[1,2-b]pyridazin-3-yl)-N-(pyrrolidin-3-yl)pyridin-2-amine] | 591 nM | 954 nM | 25 nM | 2 nM |  |  |  | 
COc1cc2ncc(-c3cccc(N[C@H]4CNCC[C@@H]4F)n3)n2nc1-c1cnn(C(F)F)c1 [Compound 130, 6-(6-(1-(difluoromethyl)-1H-pyrazol-4-yl)-7-methoxyimidazo[1,2-b]pyridazin-3-yl)-N-((3S,4S)-4-fluoropiperidin-3-yl)pyridin-2-amine] |  | 734 nM |  | < 0.5 nM |  | 137 nM | 1370 nM | 
COc1cc2ncc(-c3cccc(N[C@@H]4CCCNC4)n3)n2nc1C1(C(F)(F)F)CC1 [Compound 84, (R)-6-(7-methoxy-6-(1-(trifluoromethyl)cyclopropyl)imidazo[1,2-b]pyridazin-3-yl)-N-(piperidin-3-yl)pyridin-2-amine] | 179 nM | 536 nM | 83 nM | 1 nM |  |  |  | 
F[C@H]1CNC[C@@H]1Nc1cccc(-c2cnc3cccnn23)n1 [Compound 109, N-((3S,4S)-4-fluoropyrrolidin-3-yl)-6-(imidazo[1,2-b]pyridazin-3-yl)pyridin-2-amine] | 968 nM | > 10000 nM | 399 nM | 9 nM |  |  |  | 
FC(F)COc1cnn2c(-c3cccc(N[C@H]4CNC[C@@H]4F)n3)cnc2c1 [Compound 114, 6-(7-(2,2-difluoroethoxy)imidazo[1,2-b]pyridazin-3-yl)-N-((3S,4S)-4-fluoropyrrolidin-3-yl)pyridin-2-amine] | 326 nM | 3470 nM | 94 nM | 3 nM |  |  |  | 
COc1cc2ncc(-c3cccc(N[C@H]4CNCC45CC5)n3)n2nc1C1CC1 [Compound 100, (R)-N-(6-(6-cyclopropyl-7-methoxyimidazo[1,2-b]pyridazin-3-yl)pyridin-2-yl)-5-azaspiro[2.4]heptan-7-amine] | 20 nM | 1380 nM | < 0.5 nM | < 0.5 nM |  |  |  | 
COc1cc2ncc(-c3cccc(N[C@@H]4CCCNC4)n3)n2nc1C1CC1 [Compound 101] |  | 2320 nM | 11 nM | < 0.5 nM | 596 nM |  |  | 
F[C@H]1CNC[C@@H]1Nc1cccc(-c2cnc3cc(Cl)cnn23)n1 [Compound 110, 6-(7-chloroimidazo[1,2-b]pyridazin-3-yl)-N-((3S,4S)-4-fluoropyrrolidin-3-yl)pyridin-2-amine] | 591 nM | 3710 nM | 190 nM | 6 nM |  |  |  | 
Nc1ccn([C@@H]2O[C@H](CO)[C@@H](O)C2(F)F)c(=O)n1 [Gemcitabine, reference compound] |  |  |  |  |  |  |  | 30.69
